Test results reported in ChEMBL document CHEMBL5120818, “Discovery and Biosynthesis of Antimicrobial Phenethylamine Alkaloids from the Marine Flavobacterium Tenacibaculum discolor sv11” (2022).

Columns and labels:
Format in all cases: functional
[1] = tested on: Bacillus subtilis; test: Antibacterial activity against Bacillus subtilis DSM10 measured after 18 hrs by micro broth dilution assay
[2] = tested on: Mycolicibacterium smegmatis; test: Antibacterial activity against Mycobacterium smegmatis ATCC607 measured after 48 hrs by BacTiter-glo assay
[3] = tested on: Listeria monocytogenes; test: Antibacterial activity against Listeria monocytogenes DSM20600 measured after 48 hrs by BacTiter-glo assay
[4] = tested on: Staphylococcus aureus; test: Antibacterial activity against Staphylococcus aureus ATCC25923 measured after 18 hrs by micro broth dilution assay
[5] = tested on: Escherichia coli; test: Antibacterial activity against Escherichia coli ATCC25922 measured after 18 hrs by micro broth dilution assay
[6] = tested on: Escherichia coli; test: Antibacterial activity against delta tolC deficient Escherichia coli ATCC25922 measured after 18 hrs by micro broth dilution assay
[7] = tested on: Candida albicans; test: Antifungal activity against Candida albicans FH2173 measured after 48 hrs by BacTiter-glo assay
[8] = tested on: Aspergillus flavus; test: Antifungal activity against Aspergillus flavus ATCC9170 measured after 24 hrs by BacTiter-glo assay
[9] = tested on: Caenorhabditis elegans; test: Antihelminthic activity against Caenorhabditis elegans N2 assessed as reduction in worm motility measured after 2 days by binocular dissecting microscopy; conditions: N2, 48 h, time 2 day

Structure (SMILES)	MIC [1] [µg/mL]	MIC [2] [µg/mL]	MIC [3] [µg/mL]	MIC [4] [µg/mL]	MIC [5] [µg/mL]	MIC [6] [µg/mL]	MIC [7] [µg/mL]	MIC [8] [µg/mL]	MIC [9] [µg/mL]
CCCC1=[N+](CCc2ccccc2)C(C)(CCC(=O)c2ccccc2N)C(NCCc2ccccc2)=C1 (centres undefined)	4	8	4	8	> 64	> 64	16	16	64
CCCc1n(CCc2ccccc2)c(C)c(C)[n+]1CCc1ccccc1	16	8	> 64	64	> 64	> 64	> 64	> 64	> 64
CCCc1n(CCc2ccccc2)c(C)c(CC)[n+]1CCc1ccccc1	32	8	> 64	64	> 64	> 64	> 64	> 64	> 64
CCCc1c(CC)cc(CC)c[n+]1CCc1ccccc1	> 64	> 64	> 64	> 64	> 64	> 64	> 64	> 64	> 64
CCCc1cc2n(CCc3ccccc3)cc(-c3ccccc3)cc-2[n+]1CCc1ccccc1	1	0.5	0.5	0.5	64	8	4	1	32
CCCc1c(C)cn(CCc2ccccc2)c2cc(CCC)[n+](CCc3ccccc3)c1-2	4	4	2	4	> 64	64	8	8	> 64
